The assay concerns the target T1, Type I Ins(1,4,5)P3 5-phosphatase (Homo sapiens, UniProt Q14642).
T1 sequence (Q14642 1-412 limits assumed): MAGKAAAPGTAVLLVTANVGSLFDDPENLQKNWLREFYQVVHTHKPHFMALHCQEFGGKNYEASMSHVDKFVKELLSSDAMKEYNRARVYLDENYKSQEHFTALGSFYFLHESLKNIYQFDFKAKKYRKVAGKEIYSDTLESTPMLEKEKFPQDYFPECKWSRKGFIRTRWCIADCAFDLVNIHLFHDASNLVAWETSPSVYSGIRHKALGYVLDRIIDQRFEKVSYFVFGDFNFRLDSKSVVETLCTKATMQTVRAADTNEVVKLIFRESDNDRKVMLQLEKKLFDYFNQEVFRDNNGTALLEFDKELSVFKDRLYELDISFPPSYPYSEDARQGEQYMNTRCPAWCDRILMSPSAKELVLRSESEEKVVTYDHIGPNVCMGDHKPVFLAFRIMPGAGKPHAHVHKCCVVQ
Kind of assay: [3H]Ins. It is filed as biochemical.

SMILES strings stand for the structures.

Usually IC50 stands for the concentration needed to halve the response being measured. A high value points to weaker potency in that assay.

`O=P(O)(O)Oc1ccc(OP(=O)(O)O)c(OP(=O)(O)O)c1OCc1ccccc1` [compound 30, 3-benzyloxybenzene 1,2,4-trisphosphate] displayed a half-maximal inhibitory concentration (IC50) of 68 ± 16 µM.
